Measured values taken from patent publication US10106538B2, “Inhibitors of protein kinases” (PRINCETON DRUG DISCOVERY INC, priority 2015, dated 2018).

Experiments:
[1] = target: T1, BRK (Homo sapiens, UniProt Q13882); assay: Off-chip Mobility Shift Assay (MSA) kinase inhibition; assay type: biochemical; settings: for inhibition at 0.1 µM: inhibitor concentration 0.1 μM
T1 construct: purchased Carna Biosciences
Protocol: (§1) Off-chip Mobility Shift Assay (MSA) by Cama Biosciences, Inc (Natick, Mass.) a used for measuring the kinase activity and inhibition. • 1) The 5 μL of x4 compound solution, 5 μL of x4 Substrate/ATP/Metal solution, and 10 μL of x2 kinase solution were prepared with assay buffer (20 mM HEPES, 0.01% Triton X100, 2 mM DTT, pH 7.5) and mixed and incubated in a well of polypropylene 384 well microplate for 1 or 5 hour(s)* at room temperature.

[2] = target: T2, Erk1 (Homo sapiens, UniProt P27361); assay: as above; assay type: biochemical; settings: for inhibition at 0.1 µM: inhibitor concentration 0.1 μM
T2 construct: purchased Carna Biosciences
Protocol: as §1

[3] = target: T3, Erk2 (Homo sapiens, UniProt P28482); assay: as above; assay type: biochemical; settings: for inhibition at 0.1 µM: inhibitor concentration 0.1 μM
T3 construct: purchased Carna Biosciences
Protocol: as §1

[4] = target: T4, IGF1R (Homo sapiens, UniProt P08069); assay: as above; assay type: biochemical; settings: for inhibition at 0.1 µM: inhibitor concentration 0.1 μM
T4 construct: purchased Carna Biosciences
T4 sequence (P08069 31-1367): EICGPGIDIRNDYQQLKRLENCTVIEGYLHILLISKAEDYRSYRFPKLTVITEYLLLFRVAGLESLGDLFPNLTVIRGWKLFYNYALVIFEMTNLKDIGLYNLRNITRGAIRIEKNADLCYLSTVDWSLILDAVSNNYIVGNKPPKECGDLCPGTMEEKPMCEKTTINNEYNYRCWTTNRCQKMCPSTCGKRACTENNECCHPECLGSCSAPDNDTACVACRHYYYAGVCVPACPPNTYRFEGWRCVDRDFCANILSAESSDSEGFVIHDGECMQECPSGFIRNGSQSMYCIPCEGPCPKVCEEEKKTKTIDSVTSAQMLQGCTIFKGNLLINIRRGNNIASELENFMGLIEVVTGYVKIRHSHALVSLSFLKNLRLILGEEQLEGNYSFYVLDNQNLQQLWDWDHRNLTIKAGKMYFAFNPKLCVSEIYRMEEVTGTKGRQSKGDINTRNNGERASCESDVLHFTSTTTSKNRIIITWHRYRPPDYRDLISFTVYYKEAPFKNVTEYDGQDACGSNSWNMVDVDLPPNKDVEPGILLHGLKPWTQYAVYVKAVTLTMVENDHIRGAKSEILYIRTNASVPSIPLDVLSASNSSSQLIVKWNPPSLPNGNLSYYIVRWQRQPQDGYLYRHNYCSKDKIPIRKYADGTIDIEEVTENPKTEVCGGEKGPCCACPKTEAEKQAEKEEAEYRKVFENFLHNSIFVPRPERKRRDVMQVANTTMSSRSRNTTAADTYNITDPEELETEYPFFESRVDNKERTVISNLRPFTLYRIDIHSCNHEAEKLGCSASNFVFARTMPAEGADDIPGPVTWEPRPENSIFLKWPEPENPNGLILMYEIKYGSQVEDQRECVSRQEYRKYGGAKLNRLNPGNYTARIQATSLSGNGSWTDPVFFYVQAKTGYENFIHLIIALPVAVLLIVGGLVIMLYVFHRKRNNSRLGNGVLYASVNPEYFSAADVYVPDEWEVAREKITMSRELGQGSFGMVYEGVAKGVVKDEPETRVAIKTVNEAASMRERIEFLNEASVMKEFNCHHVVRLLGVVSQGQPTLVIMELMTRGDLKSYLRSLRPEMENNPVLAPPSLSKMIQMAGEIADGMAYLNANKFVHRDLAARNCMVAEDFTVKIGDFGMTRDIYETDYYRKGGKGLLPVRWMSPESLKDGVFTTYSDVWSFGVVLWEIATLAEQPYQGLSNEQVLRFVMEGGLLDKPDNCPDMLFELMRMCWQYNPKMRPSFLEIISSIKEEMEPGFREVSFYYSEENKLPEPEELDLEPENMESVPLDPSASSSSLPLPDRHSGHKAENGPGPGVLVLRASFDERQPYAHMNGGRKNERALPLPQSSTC
Protocol: as §1

[5] = target: T5, LCK (Homo sapiens, UniProt P06239); assay: as above; assay type: biochemical; settings: for inhibition at 0.1 µM: inhibitor concentration 0.1 μM
T5 construct: purchased Carna Biosciences
Protocol: as §1

[6] = target: T6, MAP2K1 (Homo sapiens, UniProt Q02750); assay: as above; assay type: biochemical; settings: for inhibition at 0.1 µM: inhibitor concentration 0.1 μM
T6 construct: purchased Carna Biosciences
Protocol: as §1

[7] = target: T7, MAP2K2 (Homo sapiens, UniProt P36507); assay: as above; assay type: biochemical; settings: for inhibition at 0.1 µM: inhibitor concentration 0.1 μM
T7 construct: purchased Carna Biosciences
Protocol: as §1

[8] = target: T8, MET (Homo sapiens, UniProt P08581); assay: as above; assay type: biochemical; settings: for inhibition at 0.1 µM: inhibitor concentration 0.1 μM
T8 construct: purchased Carna Biosciences
T8 sequence (P08581 25-1390): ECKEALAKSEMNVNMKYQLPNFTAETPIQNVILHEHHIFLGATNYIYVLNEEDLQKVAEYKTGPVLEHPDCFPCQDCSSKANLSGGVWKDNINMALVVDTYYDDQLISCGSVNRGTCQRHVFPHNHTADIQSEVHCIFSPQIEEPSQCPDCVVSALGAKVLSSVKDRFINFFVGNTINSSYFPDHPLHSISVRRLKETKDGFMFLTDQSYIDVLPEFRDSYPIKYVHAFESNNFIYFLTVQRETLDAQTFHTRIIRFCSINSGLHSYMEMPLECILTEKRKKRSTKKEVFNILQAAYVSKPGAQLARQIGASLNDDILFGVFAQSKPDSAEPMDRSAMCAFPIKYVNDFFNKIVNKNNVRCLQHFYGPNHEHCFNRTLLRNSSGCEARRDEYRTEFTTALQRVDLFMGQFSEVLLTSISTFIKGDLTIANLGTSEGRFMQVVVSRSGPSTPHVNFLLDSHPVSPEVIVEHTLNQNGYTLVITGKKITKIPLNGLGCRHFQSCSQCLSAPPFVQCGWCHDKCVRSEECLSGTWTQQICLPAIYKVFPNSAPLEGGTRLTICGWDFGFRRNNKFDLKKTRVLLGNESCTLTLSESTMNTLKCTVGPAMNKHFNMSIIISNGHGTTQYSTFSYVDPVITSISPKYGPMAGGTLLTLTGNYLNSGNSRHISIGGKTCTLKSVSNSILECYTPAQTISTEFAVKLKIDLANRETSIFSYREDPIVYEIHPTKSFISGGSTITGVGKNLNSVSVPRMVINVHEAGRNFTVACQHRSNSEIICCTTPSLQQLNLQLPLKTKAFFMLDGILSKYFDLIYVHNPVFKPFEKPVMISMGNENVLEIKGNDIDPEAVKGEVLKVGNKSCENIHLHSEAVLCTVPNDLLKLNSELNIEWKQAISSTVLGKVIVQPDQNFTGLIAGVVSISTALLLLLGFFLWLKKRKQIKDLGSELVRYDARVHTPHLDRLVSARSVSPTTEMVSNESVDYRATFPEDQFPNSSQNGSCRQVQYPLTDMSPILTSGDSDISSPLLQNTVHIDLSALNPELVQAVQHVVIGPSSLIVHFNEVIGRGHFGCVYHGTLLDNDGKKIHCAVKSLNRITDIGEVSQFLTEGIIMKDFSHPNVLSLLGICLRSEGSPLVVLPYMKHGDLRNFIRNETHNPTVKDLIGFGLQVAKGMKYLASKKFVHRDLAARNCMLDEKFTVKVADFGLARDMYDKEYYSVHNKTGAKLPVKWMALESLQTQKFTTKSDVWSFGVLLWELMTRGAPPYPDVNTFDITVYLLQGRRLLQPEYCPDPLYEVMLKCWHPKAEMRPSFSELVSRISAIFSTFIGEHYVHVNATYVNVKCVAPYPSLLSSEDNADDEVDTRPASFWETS
Protocol: as §1

[9] = target: T9, RAF1 (Homo sapiens, UniProt P04049); assay: as above; assay type: biochemical; settings: for inhibition at 0.1 µM: inhibitor concentration 0.1 μM
T9 construct: purchased Carna Biosciences
Protocol: as §1

[10] = target: T10, SRC (Homo sapiens, UniProt P12931); assay: as above; assay type: biochemical; settings: for inhibition at 0.1 µM: inhibitor concentration 0.1 μM
T10 construct: purchased Carna Biosciences
Protocol: as §1

[11] = tested on: breast cancer cell line T-47D; assay: Cell growth assay with breast cancer cell line T-47D; assay type: cell-based; settings: Homo sapiens, T47D, 72 h, T-47D cells, PrestoBlue Cell Viability reagent, read-out: IC50 inhibition of cell growth
Protocol: […] of the complete medium was then gently dispersed over the surface of the cell layer for several times. The cell concentration was adjusted to 1×10^4 cells/mL with the complete medium. A 100 μL aliquot of the cell suspension was added to the well of a 96-well plate, and the plate was incubated overnight at 37° C. under 5% CO2 with saturated humidity. On the next day, the medium in each well was aspirated and replaced with a 100 μL aliquot of pre-warmed complete medium at 37° C. in the presence or absence of the test compounds at various concentrations from 0-100 μM. The test compounds were dissolved in DMSO, and the final DMSO concentration in the cell culture was no more than 1%. The plate was incubated for 72 hours at 37° C. under 5% CO2 with saturated humidity. At end of the cell culture a 10 μL aliquot of PrestoBlue® Cell Viability reagent (ThermoFisher Scientific) was added into the well and the plate was incubated at 37° C. for 30 min. The absorption at 570 and 600 nm were measured with a SpectraMax Microplate reader (Molecular Devices), The absorbance at […] was normalized to that at 600 nm.

[12] = target: T11, ABL(E255K) (Homo sapiens, UniProt P00519, E255K); assay: Off-chip Mobility Shift Assay (MSA) kinase inhibition; assay type: biochemical; settings: inhibitor concentration 0.1 μM
T11 construct: purchased Carna Biosciences
Protocol: as §1

[13] = target: T12, ABL(T315I) (Homo sapiens, UniProt P00519, T315I); assay: as above; assay type: biochemical; settings: inhibitor concentration 0.1 μM
T12 construct: purchased Carna Biosciences
Protocol: as §1

[14] = target: T13, AKT1 (Homo sapiens, UniProt P31749); assay: as above; assay type: biochemical; settings: inhibitor concentration 0.1 μM
T13 construct: purchased Carna Biosciences
Protocol: as §1

[15] = target: T14, AKT2 (Homo sapiens, UniProt P31751); assay: as above; assay type: biochemical; settings: inhibitor concentration 0.1 μM
T14 construct: purchased Carna Biosciences
Protocol: as §1

[16] = target: T15, AKT3 (Homo sapiens, UniProt Q9Y243); assay: as above; assay type: biochemical; settings: inhibitor concentration 0.1 μM
T15 construct: purchased Carna Biosciences
Protocol: as §1

[17] = target: T16, AurB (Homo sapiens, UniProt Q96GD4); assay: as above; assay type: biochemical; settings: inhibitor concentration 0.1 μM
T16 construct: purchased Carna Biosciences, Inc
Protocol: as §1

[18] = target: T17, BMX (Homo sapiens, UniProt P51813); assay: as above; assay type: biochemical; settings: inhibitor concentration 0.1 μM
T17 construct: purchased Carna Biosciences
T17 sequence (P51813 1-675): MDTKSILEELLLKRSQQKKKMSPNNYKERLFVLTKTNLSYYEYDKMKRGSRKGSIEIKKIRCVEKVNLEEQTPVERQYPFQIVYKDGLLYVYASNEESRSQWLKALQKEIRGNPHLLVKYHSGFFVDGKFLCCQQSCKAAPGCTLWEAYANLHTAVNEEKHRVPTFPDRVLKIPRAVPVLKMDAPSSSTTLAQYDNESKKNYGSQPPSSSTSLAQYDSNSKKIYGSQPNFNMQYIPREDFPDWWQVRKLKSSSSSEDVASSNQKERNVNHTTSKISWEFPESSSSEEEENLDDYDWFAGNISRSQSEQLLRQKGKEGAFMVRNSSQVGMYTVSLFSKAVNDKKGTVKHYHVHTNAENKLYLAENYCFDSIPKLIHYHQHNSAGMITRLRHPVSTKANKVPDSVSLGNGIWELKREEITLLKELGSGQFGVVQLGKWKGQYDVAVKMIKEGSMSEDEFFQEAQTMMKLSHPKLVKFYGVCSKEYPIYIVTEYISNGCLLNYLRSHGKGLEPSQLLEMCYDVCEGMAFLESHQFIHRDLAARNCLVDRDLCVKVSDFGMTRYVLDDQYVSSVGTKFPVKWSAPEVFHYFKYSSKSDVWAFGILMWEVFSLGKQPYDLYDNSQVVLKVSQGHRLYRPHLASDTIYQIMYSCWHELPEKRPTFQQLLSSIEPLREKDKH
Protocol: as §1

[19] = target: T18, FAK (Homo sapiens, UniProt Q05397); assay: as above; assay type: biochemical; settings: inhibitor concentration 0.1 μM
T18 construct: purchased Carna Biosciences, Inc
T18 sequence (Q05397 whole entry): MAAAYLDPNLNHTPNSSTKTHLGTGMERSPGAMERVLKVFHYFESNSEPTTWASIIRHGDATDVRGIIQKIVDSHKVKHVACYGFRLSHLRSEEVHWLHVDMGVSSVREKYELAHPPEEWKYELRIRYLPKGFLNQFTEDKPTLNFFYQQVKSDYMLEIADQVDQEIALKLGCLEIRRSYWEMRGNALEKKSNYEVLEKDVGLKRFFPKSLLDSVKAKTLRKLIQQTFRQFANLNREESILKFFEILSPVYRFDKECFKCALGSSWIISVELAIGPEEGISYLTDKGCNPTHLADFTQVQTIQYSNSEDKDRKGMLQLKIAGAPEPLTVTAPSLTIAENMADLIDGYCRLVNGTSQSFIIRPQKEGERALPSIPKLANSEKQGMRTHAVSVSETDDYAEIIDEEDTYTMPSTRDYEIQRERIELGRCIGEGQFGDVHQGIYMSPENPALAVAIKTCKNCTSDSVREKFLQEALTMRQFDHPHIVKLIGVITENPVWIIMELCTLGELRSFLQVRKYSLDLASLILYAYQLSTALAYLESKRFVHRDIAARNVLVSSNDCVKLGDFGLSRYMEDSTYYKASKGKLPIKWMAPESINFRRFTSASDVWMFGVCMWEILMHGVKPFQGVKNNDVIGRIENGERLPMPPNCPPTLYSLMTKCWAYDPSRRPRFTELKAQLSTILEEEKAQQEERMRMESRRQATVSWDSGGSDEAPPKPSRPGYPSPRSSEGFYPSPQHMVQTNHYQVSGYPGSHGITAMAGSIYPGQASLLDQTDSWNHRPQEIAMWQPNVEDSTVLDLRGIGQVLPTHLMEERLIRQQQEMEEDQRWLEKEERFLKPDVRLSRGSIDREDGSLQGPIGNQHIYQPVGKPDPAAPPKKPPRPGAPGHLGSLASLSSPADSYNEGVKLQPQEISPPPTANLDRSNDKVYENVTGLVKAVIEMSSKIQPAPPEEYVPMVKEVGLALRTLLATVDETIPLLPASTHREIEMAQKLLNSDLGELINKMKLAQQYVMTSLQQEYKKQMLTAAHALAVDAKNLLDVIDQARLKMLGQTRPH
Protocol: as §1

[20] = target: T19, JNK2 (Homo sapiens, UniProt P45984); assay: as above; assay type: biochemical; settings: inhibitor concentration 0.1 μM
T19 construct: purchased Carna Biosciences
Protocol: as §1

[21] = target: T20, MAP3K4 (Homo sapiens, UniProt Q9Y6R4); assay: as above; assay type: biochemical; settings: inhibitor concentration 0.1 μM
T20 construct: purchased Carna Biosciences
Protocol: as §1

[22] = target: T21, MAPKAPK2 (Homo sapiens, UniProt P49137); assay: as above; assay type: biochemical; settings: inhibitor concentration 0.1 μM
T21 construct: purchased Carna Biosciences
Protocol: as §1

[23] = target: T22, RON (Homo sapiens, UniProt Q04912); assay: as above; assay type: biochemical; settings: inhibitor concentration 0.1 μM
T22 construct: purchased Carna Biosciences
T22 sequence (Q04912 25-1400): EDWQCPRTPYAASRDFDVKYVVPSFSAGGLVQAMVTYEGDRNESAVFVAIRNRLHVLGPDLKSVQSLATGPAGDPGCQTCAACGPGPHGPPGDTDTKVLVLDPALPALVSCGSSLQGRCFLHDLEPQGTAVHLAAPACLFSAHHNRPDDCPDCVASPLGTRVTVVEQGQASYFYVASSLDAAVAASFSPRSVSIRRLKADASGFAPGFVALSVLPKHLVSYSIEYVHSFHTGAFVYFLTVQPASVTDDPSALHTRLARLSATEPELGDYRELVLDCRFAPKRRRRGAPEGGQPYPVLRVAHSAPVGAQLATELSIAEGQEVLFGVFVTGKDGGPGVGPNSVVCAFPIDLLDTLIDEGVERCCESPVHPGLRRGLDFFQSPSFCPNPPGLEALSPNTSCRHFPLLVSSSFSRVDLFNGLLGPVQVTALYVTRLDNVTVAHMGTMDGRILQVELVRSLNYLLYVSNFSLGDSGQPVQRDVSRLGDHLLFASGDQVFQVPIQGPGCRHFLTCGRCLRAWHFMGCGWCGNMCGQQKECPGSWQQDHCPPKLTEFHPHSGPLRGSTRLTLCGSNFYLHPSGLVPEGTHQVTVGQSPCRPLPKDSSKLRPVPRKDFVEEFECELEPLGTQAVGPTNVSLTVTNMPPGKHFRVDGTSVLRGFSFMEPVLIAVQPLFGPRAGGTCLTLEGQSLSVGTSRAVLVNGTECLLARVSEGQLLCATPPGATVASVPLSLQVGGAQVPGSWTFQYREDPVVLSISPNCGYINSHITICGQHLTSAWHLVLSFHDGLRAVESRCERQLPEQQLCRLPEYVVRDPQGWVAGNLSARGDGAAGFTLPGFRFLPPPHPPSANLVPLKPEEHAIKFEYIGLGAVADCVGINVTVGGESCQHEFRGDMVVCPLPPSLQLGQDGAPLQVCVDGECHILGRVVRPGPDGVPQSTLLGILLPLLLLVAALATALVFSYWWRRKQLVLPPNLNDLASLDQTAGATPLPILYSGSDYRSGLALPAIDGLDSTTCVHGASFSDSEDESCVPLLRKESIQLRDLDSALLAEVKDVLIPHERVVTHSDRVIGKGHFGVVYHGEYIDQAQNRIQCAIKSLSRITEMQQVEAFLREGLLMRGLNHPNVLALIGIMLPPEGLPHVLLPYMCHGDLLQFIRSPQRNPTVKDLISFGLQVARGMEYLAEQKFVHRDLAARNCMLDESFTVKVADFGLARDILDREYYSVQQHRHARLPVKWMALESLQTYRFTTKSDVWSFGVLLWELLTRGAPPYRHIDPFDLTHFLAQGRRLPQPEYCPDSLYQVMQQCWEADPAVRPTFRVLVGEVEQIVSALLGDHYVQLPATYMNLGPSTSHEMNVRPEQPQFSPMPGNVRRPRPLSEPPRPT
Protocol: as §1

[24] = target: T23, ROS (Homo sapiens, UniProt P08922); assay: as above; assay type: biochemical; settings: inhibitor concentration 0.1 μM
T23 construct: purchased Carna Biosciences
Protocol: as §1

[25] = inhibitor concentration 0.01 μM
[26] = inhibitor concentration 0.01 μM, 0.01 µM

SMILES	inhibition at 0.1 µM [1]	inhibition at 0.1 µM [5]	inhibition at 0.1 µM [10]	IC50 [11]	inhibition at 0.1 µM [12]	inhibition at 0.1 µM [13]	inhibition at 0.1 µM [14]	inhibition at 0.1 µM [15]	inhibition at 0.1 µM [16]	inhibition at 0.1 µM [17]	inhibition at 0.1 µM [18]	inhibition at 0.1 µM [2]	inhibition at 0.1 µM [3]	inhibition at 0.1 µM [19]	inhibition at 0.1 µM [4]	inhibition at 0.1 µM [20]	inhibition at 0.1 µM [6]	inhibition at 0.1 µM [7]	inhibition at 0.1 µM [21]	inhibition at 0.1 µM [22]	also measured
O=C(c1c(F)ccc(NS(=O)(=O)CC(O)CO)c1F)c1c[nH]c2ncc(-c3ccc(Cl)cc3)cc12 (stereo not drawn) [200-73, N-[3-[5-(4-chlorophenyl)-lH-pyrrolo [2,3-b]pyridine-3-carbonyl]-2,4-difluorophenyl]-2,3-dihydroxypropane-l-sulfonamide]	> 30%	< 30%	< 30%	< 20 µM	< 30%	< 30%	< 30%	< 30%	< 30%	< 30%	< 30%	< 30%	< 30%	< 30%	< 30%	< 30%	< 30%	< 30%	< 30%	< 30%	inhibition at 0.1 µM [8]: < 30%; inhibition at 0.1 µM [9]: > 30%; inhibition at 0.1 µM [23]: < 30%; inhibition at 0.1 µM [24]: < 30%
C/C=C/S(=O)(=O)Nc1ccc(F)c(C(=O)c2c[nH]c3ncc(-c4ccc(Cl)cc4)cc23)c1F [200-93b]	–	–	–	< 20 µM	–	–	–	–	–	–	–	–	–	–	–	–	–	–	–	–	BRK inhibition [1, 26]: >20%; LCK inhibition [5, 26]: >20%; RAF1 inhibition [9, 26]: >20%; SRC inhibition [10, 26]: <20%
CC(O)CS(=O)(=O)Nc1ccc(F)c(C(=O)c2c[nH]c3ncc(-c4ccc(Cl)cc4)cc23)c1F (centres unmarked) [200-115]	> 30%	> 30%	< 30%	–	< 30%	< 30%	< 30%	< 30%	< 30%	< 30%	< 30%	< 30%	< 30%	< 30%	< 30%	< 30%	< 30%	< 30%	< 30%	< 30%	inhibition at 0.1 µM [8]: < 30%; inhibition at 0.1 µM [9]: > 30%; inhibition at 0.1 µM [23]: < 30%; inhibition at 0.1 µM [24]: < 30%

Now from value to molecule, other results behind:

inhibition at 0.1 µM [1]	inhibition at 0.1 µM [5]	inhibition at 0.1 µM [10]	IC50 [11]	inhibition at 0.1 µM [12]	inhibition at 0.1 µM [13]	inhibition at 0.1 µM [14]	inhibition at 0.1 µM [15]	inhibition at 0.1 µM [16]	inhibition at 0.1 µM [17]	inhibition at 0.1 µM [18]	inhibition at 0.1 µM [2]	inhibition at 0.1 µM [3]	inhibition at 0.1 µM [19]	inhibition at 0.1 µM [4]	inhibition at 0.1 µM [20]	inhibition at 0.1 µM [6]	inhibition at 0.1 µM [7]	inhibition at 0.1 µM [21]	inhibition at 0.1 µM [22]	SMILES	also measured
> 50%	> 50%	> 50%	< 20 µM	–	–	–	–	–	–	–	–	–	–	–	–	–	–	–	–	O=C(c1c(F)ccc(NS(=O)(=O)CCCO)c1F)c1c[nH]c2ncc(-c3ccc(Cl)cc3)cc12 [200-17, N-[3-[5-(4-chlorophenyl)-1H-pyrrolo[2,3-b]pyridine-3-carbonyl]-2,4-difluorophenyl]-3-hydroxypropane-1-sulfonamide]	inhibition at 0.01 µM [1, 25]: > 30%; inhibition at 1 µM ([1]; inhibitor concentration 1 μM): > 50%; inhibition at 1 µM ([2]; inhibitor concentration 1 μM): < 50%; inhibition at 1 µM ([3]; inhibitor concentration 1 μM): < 50%; inhibition at 1 µM ([4]; inhibitor concentration 1 μM): < 50%; inhibition at 0.01 µM [5, 25]: > 30%; inhibition at 1 µM ([5]; inhibitor concentration 1 μM): > 50%; inhibition at 1 µM ([6]; inhibitor concentration 1 μM): < 50%; inhibition at 1 µM ([7]; inhibitor concentration 1 μM): < 50%; inhibition at 1 µM ([8]; inhibitor concentration 1 μM): > 50%; inhibition at 1 µM ([9]; inhibitor concentration 1 μM): > 50%; inhibition at 0.01 µM [10, 25]: < 30%; inhibition at 1 µM ([10]; inhibitor concentration 1 μM): > 50%
> 30%	> 30%	< 30%	–	< 30%	< 30%	< 30%	< 30%	< 30%	< 30%	< 30%	< 30%	< 30%	< 30%	< 30%	< 30%	< 30%	< 30%	< 30%	< 30%	CC(=O)CS(=O)(=O)Nc1ccc(F)c(C(=O)c2c[nH]c3ncc(-c4ccc(Cl)cc4)cc23)c1F [200-117]	inhibition at 0.1 µM [8]: < 30%; inhibition at 0.1 µM [9]: > 30%; inhibition at 0.1 µM [23]: < 30%; inhibition at 0.1 µM [24]: < 30%
